{"source": "patent US10828310B2", "about": "“Reducing the risk of cardiovascular events” (Bayer Pharma Aktiengesellschaft, priority 2018, dated 2020)", "key": {"[1]": {"test_system": "patients with stable atherosclerotic vascular disease (coronary artery disease, peripheral arterial disease, or both)", "experiment": "COMPASS trial, efficacy outcomes", "format": "in vivo, human", "settings": "for participants reported to have atrial fibrillation who had a stroke: 26 of the 392 participants with atrial fibrillation; for primary outcome event of cardiovascular death, stroke, or myocardial infarction, number of patients / primary outcome event of cardiovascular death, stroke, or myocardial infarction, percentage of patients: rivaroxaban alone 5 mg twice daily, mean follow-up 23 months; for primary outcome / major adverse cardiovascular events compared with aspirin alone (in words): compared with aspirin alone 100 mg once daily", "method": "Patients were eligible if they provided written informed consent and met the criteria for coronary artery disease, peripheral arterial disease, or both. Patients with coronary artery disease who were younger than 65 years of age were also required to have documentation of atherosclerosis involving at least two vascular beds or to have at least two additional risk factors (current smoking, diabetes mellitus, an estimated glomerular filtration rate (“GFR”)<60 ml per minute, heart failure, or nonlacunar ischemic stroke≥1 month earlier). Exclusion criteria were a high bleeding risk; a recent stroke or previous hemorrhagic or lacunar stroke; severe heart failure; advanced stable kidney disease (estimated GFR<15 ml per minute); the use of dual antiplatelet therapy, anticoagulation, or other antithrombotic therapy; and noncardiovascular conditions deemed by the investigator to be associated with a poor prognosis.\nEligible participants (except those who underwent randomization 4 to 14 days after coronary-artery bypass graft (“CABG”) surgery) entered a run-in phase during which they received a rivaroxaban-matched placebo twice daily and aspirin at a dose of 100 mg once daily. The purpose of the run-in phase was to identify participants who were unwilling or unable to adhere to the trial regimen, who had adverse events, or who were otherwise not suitable for randomization. Patients who underwent randomization 4 to 14 days after CABG surgery were not required to participate in the run-in phase because thrombotic graft occlusion is most common during the first few weeks after surgery and we sought to enroll such patients promptly.\n(§1) Study aspirin was enteric-coated.\n(§2) Three secondary efficacy outcomes were specified: the composite of ischemic stroke, myocardial infarction, acute limb ischemia, or death from coronary heart disease; the composite of ischemic stroke, myocardial infarction, acute limb ischemia, or cardiovascular death; and death from any cause. Tertiary efficacy outcomes included individual components of the primary and secondary outcomes, as well as hospitalization for cardiovascular causes, revascularization, limb amputation, stent thrombosis, angina, heart failure, venous thromboembolism, resuscitated cardiac arrest, and a new diagnosis of cancer. The net-clinical-benefit outcome was the composite of cardiovascular death, stroke, myocardial infarction, fatal bleeding, or symptomatic bleeding into a critical organ.\nAll the outcome events in all randomly assigned patients that occurred between randomization and the date of stopping the trial were included in the analysis, according to the intention-to-treat principle. An early stop of both antithrombotic treatment groups for efficacy had not been anticipated, and therefore a strategy for formal testing of secondary outcomes at the interim analysis was not prespecified.\n(§3) All reported P values are two-sided."}, "[2]": {"test_system": "patients with stable atherosclerotic vascular disease (coronary artery disease, peripheral arterial disease, or both)", "experiment": "COMPASS trial, net-clinical-benefit outcome", "format": "in vivo, human", "from_the_text": "“Safe” for the methods disclosed herein may also be measured by the net clinical benefit of the inventive method or product compared to administration of aspirin alone. The net clinical benefit outcome consists of cardiovascular death, myocardial infarction, stroke, and fatal or critical organ bleeding.\nBecause the products and methods of the present invention involve medications that cause the desired reduction in the risk of myocardial infarction, stroke, or cardiovascular death yet also cause undesired bleeding, the “net clinical benefit” of the therapy is important to consider. The “net clinical benefit” composite is a positive benefit risk ratio that was derived using severe bleeding events (intracranial bleeding, fatal bleeding, and critical organ bleeding) as a component of the composite. In clinical studies, the risk of the composite net clinical benefit outcome of cardiovascular death, stroke, myocardial infarction, fatal bleeding or symptomatic bleeding into a critical organ was lower with twice-daily 2.5 mg rivaroxaban combined with once daily 100 mg aspirin (4.7%) than with aspirin alone (100 mg once daily) (5.9%), hazard ratio 0.80.\nas §1, §2, §3"}, "[3]": {"test_system": "patients with stable cardiovascular disease", "settings": "in vivo; cited from earlier work"}, "[4]": {"test_system": "patients with stable atherosclerotic vascular disease (coronary artery disease, peripheral arterial disease, or both)", "settings": "human, in vivo, 23 months", "from_the_text": "Adverse events that impact whether the inventive combinations and combination therapy are safe are adverse bleeding events that include, for example, major bleeding, minor bleeding, intracranial bleeding, and symptomatic bleeding into a critical organ. “Major bleeding” as used herein is a modification of the International Society on Thrombosis and Haemostasis (ISTH) criteria for major bleeding and includes fatal bleeding, symptomatic bleeding into a critical organ, bleeding into a surgical site requiring reoperation, and bleeding that led to hospitalization (including presentation to an acute care facility without an overnight stay). Unlike the ISTH criteria, all bleeding that led to presentation to an acute care facility or hospitalization is considered as major.\nThe COMPASS trial, conducted at 602 centers in 33 countries, is a double-blind, double-dummy, randomized trial using a 3-by-2 partial factorial design and involving patients with a history of stable atherosclerotic vascular disease. […]"}, "[5]": {"test_system": "patients with a recent acute coronary syndrome", "settings": "background of single or dual antiplatelet therapy, cited from earlier work"}, "[6]": {"test_system": "patients with stable peripheral arterial disease", "settings": "in vivo; cited from earlier work"}, "[7]": {"test_system": "patients with stable cardiovascular disease receiving single or dual antiplatelet therapy", "settings": "in vivo; cited from earlier work"}, "[8]": {"settings": "rivaroxaban 2.5 mg twice daily + aspirin 100 mg once daily, aspirin alone 100 mg once daily"}}, "note": "Entries after “also recorded” stand apart in the source; their conditions may differ."}
{"smiles": "CC(=O)Oc1ccccc1C(=O)O", "note": "[aspirin alone, acetylsalicylic acid]", "values": [{"measurement": "participants reported to have atrial fibrillation who had a stroke", "setting": "[1]", "result": 11, "unit": "participants"}, {"measurement": "deaths (death from any cause), number", "setting": "[1]; [8]", "result": 378, "unit": "deaths"}, {"measurement": "deaths (death from any cause), percentage", "setting": "[1]; [8]", "result": 4.1, "unit": "%"}, {"measurement": "secondary composite outcome of ischemic stroke, myocardial infarction, acute limb ischemia, or death from coronary heart disease, number of patients", "setting": "[1]; [8]", "result": 450, "unit": "patients"}, {"measurement": "secondary composite outcome of ischemic stroke, myocardial infarction, acute limb ischemia, or death from coronary heart disease, percentage of patients", "setting": "[1]; [8]", "result": 4.9, "unit": "%"}, {"measurement": "secondary outcome of ischemic stroke, myocardial infarction, acute limb ischemia, or cardiovascular death, number of patients", "setting": "[1]; [8]", "result": 516, "unit": "patients"}, {"measurement": "secondary outcome of ischemic stroke, myocardial infarction, acute limb ischemia, or cardiovascular death, percentage of patients", "setting": "[1]; [8]", "result": 5.7, "unit": "%"}, {"measurement": "primary outcome event of cardiovascular death, stroke, or myocardial infarction, number of patients", "setting": "[1]; [8]", "result": 496, "unit": "patients"}, {"measurement": "primary outcome event of cardiovascular death, stroke, or myocardial infarction, percentage of patients", "setting": "[1]; [8]", "result": 5.4, "unit": "%"}, {"measurement": "composite net-clinical-benefit outcome of cardiovascular death, stroke, myocardial infarction, fatal bleeding, or symptomatic bleeding into a critical organ, number of patients", "setting": "[2]; [8]", "result": 534, "unit": "patients"}, {"measurement": "composite net-clinical-benefit outcome of cardiovascular death, stroke, myocardial infarction, fatal bleeding, or symptomatic bleeding into a critical organ, percentage of patients", "setting": "[2]; [8]", "result": 5.9, "unit": "%"}]}
{"smiles": "COC(=O)[C@H](c1ccccc1Cl)N1CCc2sccc2C1", "note": "[clopidogrel]", "values": [{"measurement": "risk of cardiovascular death or death from any cause vs aspirin", "setting": "[3]", "result": "no significant difference"}, {"measurement": "risk of major adverse cardiovascular events vs aspirin", "setting": "[3]", "result": "lower risk"}]}
{"smiles": "O=C(NC[C@H]1CN(c2ccc(N3CCOCC3=O)cc2)C(=O)O1)c1ccc(Cl)s1", "note": "[rivaroxaban alone, 5-chloro-N-({(5S)-2-oxo-3-[4-(3-oxo-4-morpholinyl)phenyl]-1,3-oxazolidin-5-yl}methyl)-2-thiophenecarboxamide]", "values": [{"measurement": "participants reported to have atrial fibrillation who had a stroke", "setting": "[1]", "result": 8, "unit": "participants"}, {"measurement": "primary outcome / major adverse cardiovascular events compared with aspirin alone (in words)", "setting": "[1]", "result": "did not show a significant difference"}, {"measurement": "primary outcome / major adverse cardiovascular events compared with aspirin alone (in words)", "setting": "[1]; listed as Rivaroxaban", "result": "not associated with a significant reduction"}, {"measurement": "primary outcome / major adverse cardiovascular events compared with aspirin alone (in words)", "setting": "[1]; listed as Rivaroxaban alone", "result": "did not result in a significantly lower risk"}, {"measurement": "hazard ratio for the primary outcome", "setting": "[1]; compared with aspirin alone, stratified Cox model", "result": 0.90}, {"measurement": "primary outcome event of cardiovascular death, stroke, or myocardial infarction, number of patients", "setting": "[1]; [8]", "result": 448, "unit": "patients"}, {"measurement": "primary outcome event of cardiovascular death, stroke, or myocardial infarction, percentage of patients", "setting": "[1]; [8]", "result": 4.9, "unit": "%"}, {"measurement": "hazard ratio, major bleeding events (modified ISTH criteria)", "setting": "[4]", "result": 1.51}, {"measurement": "net-clinical-benefit outcome compared with aspirin alone (in words)", "setting": "[2]; rivaroxaban alone 5 mg twice daily vs aspirin alone", "result": "not significantly lower; also recorded: did not show a significant difference"}, {"measurement": "rate of major adverse cardiovascular events vs placebo", "setting": "[5]; 2.5 mg twice daily or 5 mg twice daily", "result": "lower rate"}, {"measurement": "mortality vs placebo", "setting": "[5]; 2.5 mg twice daily", "result": "lower mortality"}]}
{"smiles": "CCCSc1nc(N[C@@H]2C[C@H]2c2ccc(F)c(F)c2)c2nnn([C@@H]3C[C@H](OCCO)[C@@H](O)[C@H]3O)c2n1", "note": "[ticagrelor]", "values": [{"measurement": "rate of major adverse cardiovascular events vs clopidogrel", "setting": "[6]", "result": "did not result in a significantly lower rate"}]}
{"smiles": "CCOC(=O)N[C@@H]1CC[C@@H]2[C@@H](C1)C[C@H]1C(=O)O[C@H](C)[C@H]1[C@H]2/C=C/c1ccc(-c2cccc(F)c2)cn1", "note": "[vorapaxar]", "values": [{"measurement": "mortality vs placebo", "setting": "[7]", "result": "no significant between-group difference"}, {"measurement": "rate of major adverse cardiovascular events vs placebo", "setting": "[7]", "result": "lower rate"}, {"measurement": "rate of moderate or severe bleeding vs placebo", "setting": "[7]", "result": "higher rate"}]}
